# No end group written: not given here.
# System: cells
# Assay: MTT assay for cytotoxicity
# Type: cell-based
# Conditions: within a range of used concentrations, FIG. 3
sequence,measurement,value
"VEHDKEFFHPRYHHR [BFP 2, Val-Glu-His-Asp-Lys-Glu-Phe-Phe-His-Pro-Arg-Tyr-His-His-Arg]",cytotoxicity,not toxic to cells

# Reference: patent EP2303911B1, “A SYNTHETIC PEPTIDE CONSISTING OF BONE FORMING PEPTIDE 2(BFP 2) FOR STIMULATING OSTEOBLAST DIFFERENTIATION, AND PHARMACEUTICAL COMPOSITION COMPRISING THE SYNTHETIC PEPTIDE” (Industry Foundation Of Chonnam National University, priority 2008, dated 2012)
